Values of other authors as cited in patent publication US20170094967A1, “OIL PALM FRUIT APPLICATION METHODS” (Valent BioSciences Corporation, priority 2015, published 2017).

Test system: oil palms
Conditions: applied before harvest directly to the fruit

Structure (SMILES) | oil yield of oil palm fruit
NCCO/C=C/[C@H](N)C(=O)O (stereo in doubt) [AVG, [S]-trans-2-amino-4-(2-aminoethoxy)-3-butenoic acid] | increases the oil yield
CC1=CC1 [1-MCP, 1-methylcyclopropene] | increases the oil yield
